We go through 13 compounds from patent US12371428B2 (Exelixis, Inc., priority 2019, dated 2025).

Test [1] has as its target Human MET (residues 956-1390) (Homo sapiens (Human), UniProt P08581). Kind of test: Human Met kinase assay, HTRF KinEase (Example D-2). The class given is biochemical. To be noted: read-out: c-Met IC50. The procedure: (§1) Kinase activity and compound inhibition were also investigated using the HTRF® KinEase assay (Cisbio Cat #62TKOPEB) per manufacturer's instructions. In short, compounds were delivered in 300 nL volumes at 10 different concentrations in DMSO (3% final) to empty 384-well assay plates (Corning cat #3824). A mixture of enzyme, […] biotynlated peptide substrate, and buffer in 10 μL volume was added. The assay was started upon the addition of ATP (at Km). The 10 μL reaction was incubated at room temperature. The reaction was stopped upon the addition of detection buffer containing streptavidin-XL665 ([…]) and TK antibody-Eu3+([…]). After a 60 min incubation at room temperature, the fluorescence at 665 nm and 620 nm was read on an Envision microplate reader (Perkin Elmer).
(§2) Kinase activity normalized to DMSO (100% activity) and reference compound at […] and (0% activity) was calculated using the fluorescence ratio […]. IC50 values were calculated by nonlinear regression analysis using a 4-parameter logistic curve fit in ActivityBase XE (IDBS).
Example D-2: Human MET (residues 956-1390; CarnaBio, 0.1 ng/well) was also incubated with enzymatic buffer (Cisbio) supplemented with 5 mM MgCl2, 1 mM DTT and 1 mM MnCl2. The mixture was added to the pre-plated compounds. […] The reaction was incubated at room temperature for 40 min and stopped upon the addition of SA-XL665 and TK-antibody both diluted in EDTA-containing kinase detection buffer (Cisbio). The kinase activity was calculated as stated above and the IC50 values were reported.
(In general: TR-FRET usually uses a lanthanide donor and a delayed reading to cut background.)

Test [2] deals with Met (phospho-Met, HGF-stimulated PC-3 prostate cancer cells) (Homo sapiens (Human), UniProt P08581). Kind of test: Met autophosphorylation ELISA in PC-3 cells (Example F). The class given is cell-based. To be noted: cellular activity; Met autophosphorylation ELISA in PC-3 cells; read-out: c-Met IC50. The method, boiled down: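 PC-3 cells, serum-starved 3 h, were treated with compounds (8-point dose curve, 0.3% DMSO final) for 1 h, then stimulated with 100 ng/mL recombinant human HGF for 10 min. Lysate phospho-Met (panTyr) was quantified by sandwich ELISA; IC50 from 4-parameter logistic fit.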
For orientation: In an ELISA, binding on a coated surface is turned into a signal by an enzyme label.

Test [3] addresses Human MER (residues 528-999) (Homo sapiens (Human), UniProt Q12866). Put plainly: Human Mer kinase assay, HTRF KinEase (Example C-2). The class given is biochemical. The procedure: as §1, §2
Example C-2: Human MER (residues 528-999; CarnaBio, 1 ng/well) was also incubated with enzymatic buffer (Cisbio) supplemented with 5 mM MgCl2 and 1 mM DTT. The mixture was added to the pre-plated compounds. The reaction was initiated upon addition of ATP at Km (40 μM). The reaction was incubated at room temperature for 60 min and stopped upon the addition of SA-XL665 and TK-antibody both diluted in EDTA-containing kinase detection buffer (Cisbio). The kinase activity was calculated as stated above and the IC50 values were reported.

Test [4] concerns the target Mer (phospho-Mer, MERTK-transfected 293A cells) (Homo sapiens (Human), UniProt Q12866). Put plainly: Mer autophosphorylation ELISA in transient transfected 293A cells (Example H). The class given is cell-based. The settings on record: cellular activity; Mer autophosphorylation ELISA in transient transfected 293A cells. Put shortly: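 MERTK-transfected 293A; 8-pt dose, 1 h, serum-free, 0.3% DMSO. Cold lysis with orthovanadate and protease/phosphatase inhibitors. Phospho-Mer by DuoSet IC ELISA vs phospho-Mer standard. IC50: 4-PL fit; DMSO = 100%, reference inhibitor = 0%.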

In test [5] the target is KDR (phospho-KDR, VEGF165-stimulated HUVEC cells) (Homo sapiens (Human), UniProt P35968). Kind of test: KDR autophosphorylation ELISA in HUVEC cells (Example G). It counts as cell-based. To be noted: cellular activity; KDR autophosphorylation ELISA in HUVEC cells. The method, boiled down: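 Inhibition of VEGF165-driven KDR autophosphorylation is measured in primary human umbilical vein endothelial cells after 24 h serum deprivation. Compound preincubation lasts 1 h before a 5-minute challenge with 100 ng/mL ligand, and phosphorylated receptor is then measured by ELISA in the lysates.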

In test [6] the target is Human KDR (residues 790-1356) (Homo sapiens (Human), UniProt P35968). Kind of test: Human KDR kinase assay, HTRF KinEase (Example B-2). The settings on record: protocol of Example B-2 (other compounds). It counts as biochemical. The procedure:
as §1, §2
Example B-2: Human KDR (residues 790-1356; CarnaBio, 0.1 ng/well) was also incubated with enzymatic buffer (Cisbio) supplemented with 5 mM MgCl2, 1 mM MnCl2, and 1 mM DTT. The mixture was added to the pre-plated compounds. The reaction was initiated upon addition of ATP at Km (4.0 μM). The reaction was incubated at room temperature for 40 min and stopped upon the addition of SA-XL665 and TK-antibody both diluted in EDTA-containing kinase detection buffer (Cisbio). The kinase activity was calculated as stated above and the IC50 values were reported.

Where [7] appears, read: protocol of Example D-2 (other compounds).
The mark [8] stands for this setting: protocol of Example C-2 (other compounds).

pIC50: −log10 of the molar value. Structures can show the parent of a compound that is named as a salt. Where two headings read alike, the source gives them in different places. Where only a bound is given, the exact number is not on record here.

For orientation: pIC50 means the negative decadic logarithm of the IC50, by convention in mol/L.

Chain of Human MET (residues 956-1390) (P08581 956-1390): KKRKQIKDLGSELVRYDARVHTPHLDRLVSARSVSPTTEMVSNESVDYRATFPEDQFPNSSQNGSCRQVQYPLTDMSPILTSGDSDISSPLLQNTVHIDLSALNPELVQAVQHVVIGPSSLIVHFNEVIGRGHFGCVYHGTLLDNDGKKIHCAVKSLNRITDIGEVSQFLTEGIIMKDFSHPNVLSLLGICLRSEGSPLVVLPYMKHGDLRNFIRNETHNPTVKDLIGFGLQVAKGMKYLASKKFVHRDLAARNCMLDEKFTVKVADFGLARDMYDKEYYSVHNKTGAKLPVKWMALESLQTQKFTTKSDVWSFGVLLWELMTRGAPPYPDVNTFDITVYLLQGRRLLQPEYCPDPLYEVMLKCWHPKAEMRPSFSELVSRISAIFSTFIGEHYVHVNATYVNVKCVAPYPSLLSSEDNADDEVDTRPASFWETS
Chain of Human MER (residues 528-999) (Q12866 528-999): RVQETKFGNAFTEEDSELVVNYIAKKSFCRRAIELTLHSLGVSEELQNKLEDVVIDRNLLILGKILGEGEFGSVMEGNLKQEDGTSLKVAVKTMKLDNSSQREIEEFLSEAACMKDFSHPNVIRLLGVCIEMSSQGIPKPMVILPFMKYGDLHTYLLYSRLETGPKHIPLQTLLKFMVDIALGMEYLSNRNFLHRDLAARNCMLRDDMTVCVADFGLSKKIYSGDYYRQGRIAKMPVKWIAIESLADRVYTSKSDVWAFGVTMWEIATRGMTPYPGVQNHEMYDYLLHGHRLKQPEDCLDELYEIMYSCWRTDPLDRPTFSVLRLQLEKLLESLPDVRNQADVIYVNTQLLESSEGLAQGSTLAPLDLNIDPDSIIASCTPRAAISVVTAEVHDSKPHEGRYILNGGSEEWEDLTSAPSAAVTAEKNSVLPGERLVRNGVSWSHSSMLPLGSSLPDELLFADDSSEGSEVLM
Chain of KDR (phospho-KDR, VEGF165-stimulated HUVEC cells) (P35968 20-1356): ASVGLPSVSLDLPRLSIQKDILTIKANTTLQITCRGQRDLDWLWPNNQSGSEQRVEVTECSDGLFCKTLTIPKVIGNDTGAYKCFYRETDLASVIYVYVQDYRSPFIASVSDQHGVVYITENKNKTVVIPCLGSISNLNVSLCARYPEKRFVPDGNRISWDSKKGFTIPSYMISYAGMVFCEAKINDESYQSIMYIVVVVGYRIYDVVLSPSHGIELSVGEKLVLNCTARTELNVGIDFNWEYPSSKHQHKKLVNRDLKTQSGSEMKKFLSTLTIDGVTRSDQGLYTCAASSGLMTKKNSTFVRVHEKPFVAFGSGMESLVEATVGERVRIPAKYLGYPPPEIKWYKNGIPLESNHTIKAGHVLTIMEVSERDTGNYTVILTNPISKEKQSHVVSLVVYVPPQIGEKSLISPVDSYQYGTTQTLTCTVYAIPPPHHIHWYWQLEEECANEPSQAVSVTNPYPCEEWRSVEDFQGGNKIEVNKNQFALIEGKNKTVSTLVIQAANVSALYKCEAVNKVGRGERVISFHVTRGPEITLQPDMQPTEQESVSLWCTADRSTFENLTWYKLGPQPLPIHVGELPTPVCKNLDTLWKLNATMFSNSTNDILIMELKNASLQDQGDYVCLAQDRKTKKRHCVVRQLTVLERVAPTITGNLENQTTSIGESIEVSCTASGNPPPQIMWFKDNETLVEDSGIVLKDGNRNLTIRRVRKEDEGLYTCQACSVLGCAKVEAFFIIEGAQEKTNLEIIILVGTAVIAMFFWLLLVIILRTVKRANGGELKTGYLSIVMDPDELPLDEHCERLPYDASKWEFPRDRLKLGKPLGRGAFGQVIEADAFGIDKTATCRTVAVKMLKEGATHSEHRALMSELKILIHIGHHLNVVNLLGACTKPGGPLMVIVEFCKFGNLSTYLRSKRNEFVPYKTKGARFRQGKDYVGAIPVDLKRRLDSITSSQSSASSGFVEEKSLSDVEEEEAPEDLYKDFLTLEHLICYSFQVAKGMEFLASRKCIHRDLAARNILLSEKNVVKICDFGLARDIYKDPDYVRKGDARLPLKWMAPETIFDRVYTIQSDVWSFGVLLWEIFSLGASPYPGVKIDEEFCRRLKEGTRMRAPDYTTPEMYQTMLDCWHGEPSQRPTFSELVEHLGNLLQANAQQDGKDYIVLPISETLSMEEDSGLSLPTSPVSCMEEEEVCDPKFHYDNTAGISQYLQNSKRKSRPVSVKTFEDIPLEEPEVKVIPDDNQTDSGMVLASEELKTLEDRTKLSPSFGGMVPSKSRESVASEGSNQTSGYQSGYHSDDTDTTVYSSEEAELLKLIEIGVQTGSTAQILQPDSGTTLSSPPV
Chain of Mer (phospho-Mer, MERTK-transfected 293A cells) (Q12866 21-999): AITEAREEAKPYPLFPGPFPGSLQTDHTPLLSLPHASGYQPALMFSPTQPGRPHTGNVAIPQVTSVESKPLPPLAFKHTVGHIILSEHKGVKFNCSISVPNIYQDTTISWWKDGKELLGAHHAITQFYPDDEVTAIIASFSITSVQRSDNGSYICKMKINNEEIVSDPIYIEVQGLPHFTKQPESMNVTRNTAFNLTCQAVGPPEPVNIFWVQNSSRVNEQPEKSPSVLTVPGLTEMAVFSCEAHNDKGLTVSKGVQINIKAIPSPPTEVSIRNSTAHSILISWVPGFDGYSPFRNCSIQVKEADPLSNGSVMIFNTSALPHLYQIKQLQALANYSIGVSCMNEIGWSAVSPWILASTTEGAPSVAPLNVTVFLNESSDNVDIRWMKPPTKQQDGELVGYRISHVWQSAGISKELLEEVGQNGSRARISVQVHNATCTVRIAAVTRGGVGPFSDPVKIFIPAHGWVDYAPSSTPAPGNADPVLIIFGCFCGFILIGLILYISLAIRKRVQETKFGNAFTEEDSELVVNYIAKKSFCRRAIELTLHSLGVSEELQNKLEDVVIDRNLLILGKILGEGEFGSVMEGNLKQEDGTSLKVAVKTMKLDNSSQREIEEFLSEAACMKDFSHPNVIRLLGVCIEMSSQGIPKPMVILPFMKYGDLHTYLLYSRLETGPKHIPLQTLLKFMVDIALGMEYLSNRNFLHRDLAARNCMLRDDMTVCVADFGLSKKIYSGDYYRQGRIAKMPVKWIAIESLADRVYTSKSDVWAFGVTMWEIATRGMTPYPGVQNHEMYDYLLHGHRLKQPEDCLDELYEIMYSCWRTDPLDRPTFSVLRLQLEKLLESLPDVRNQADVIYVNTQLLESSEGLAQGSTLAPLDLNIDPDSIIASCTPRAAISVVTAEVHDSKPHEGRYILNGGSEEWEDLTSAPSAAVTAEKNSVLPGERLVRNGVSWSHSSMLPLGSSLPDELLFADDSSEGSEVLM
Chain of Met (phospho-Met, HGF-stimulated PC-3 prostate cancer cells) (P08581 25-1390): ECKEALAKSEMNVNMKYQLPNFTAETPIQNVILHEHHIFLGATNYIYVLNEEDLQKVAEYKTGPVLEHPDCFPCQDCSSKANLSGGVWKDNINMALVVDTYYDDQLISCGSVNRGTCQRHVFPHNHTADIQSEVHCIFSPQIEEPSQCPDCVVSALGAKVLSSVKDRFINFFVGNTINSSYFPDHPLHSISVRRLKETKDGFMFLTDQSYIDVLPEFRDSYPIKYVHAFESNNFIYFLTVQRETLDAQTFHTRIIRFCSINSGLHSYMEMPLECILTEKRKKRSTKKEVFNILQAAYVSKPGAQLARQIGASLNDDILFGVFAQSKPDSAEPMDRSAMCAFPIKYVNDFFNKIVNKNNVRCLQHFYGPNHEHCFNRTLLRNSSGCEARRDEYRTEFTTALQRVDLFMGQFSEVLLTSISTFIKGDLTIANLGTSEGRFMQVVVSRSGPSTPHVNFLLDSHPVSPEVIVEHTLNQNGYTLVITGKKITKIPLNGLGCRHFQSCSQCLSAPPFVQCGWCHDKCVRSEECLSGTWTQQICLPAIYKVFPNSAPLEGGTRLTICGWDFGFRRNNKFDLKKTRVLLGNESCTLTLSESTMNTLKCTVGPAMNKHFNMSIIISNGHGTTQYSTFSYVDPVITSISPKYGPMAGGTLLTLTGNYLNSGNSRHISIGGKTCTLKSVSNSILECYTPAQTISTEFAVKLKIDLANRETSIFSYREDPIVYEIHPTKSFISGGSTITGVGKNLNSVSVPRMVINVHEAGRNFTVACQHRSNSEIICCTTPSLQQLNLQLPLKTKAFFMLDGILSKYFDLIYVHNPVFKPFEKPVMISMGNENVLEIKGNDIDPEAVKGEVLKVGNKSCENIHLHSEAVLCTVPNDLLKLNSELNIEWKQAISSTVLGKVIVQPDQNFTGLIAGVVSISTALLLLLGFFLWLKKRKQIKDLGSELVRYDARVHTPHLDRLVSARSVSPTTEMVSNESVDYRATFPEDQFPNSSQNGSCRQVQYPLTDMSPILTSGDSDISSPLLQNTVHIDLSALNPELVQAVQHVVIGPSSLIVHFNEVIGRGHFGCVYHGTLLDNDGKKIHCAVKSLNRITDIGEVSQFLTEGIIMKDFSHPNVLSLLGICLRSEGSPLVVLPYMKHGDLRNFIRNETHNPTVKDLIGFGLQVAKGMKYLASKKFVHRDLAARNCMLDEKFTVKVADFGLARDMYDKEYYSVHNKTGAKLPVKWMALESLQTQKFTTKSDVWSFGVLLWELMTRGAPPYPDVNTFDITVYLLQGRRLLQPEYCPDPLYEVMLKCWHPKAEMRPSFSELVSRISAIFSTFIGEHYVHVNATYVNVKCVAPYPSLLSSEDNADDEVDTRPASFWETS

`COc1ccc2nccc(Oc3ccc(NC(=O)c4cn(C(C)C)c(C)c(-c5ccc(F)cc5)c4=O)cc3F)c2n1` [Compound 110, N-[3-Fluoro-4-[(6-methoxy-1,5-naphthyridin-4-yl)oxy]phenyl]-5-(4-fluorophenyl)-6-methyl-4-oxo-1-propan-2-ylpyridine-3-carboxamide]: the pIC50 in test [1] (setting [7]) was more than 7.00; in test [2], more than 7.00; in test [3] (setting [8]), more than 7.00; in test [4] it was more than 7.00; in test [5], less than 6.52.
As for `CNn1cc(C(=O)Nc2ccc(Oc3ccnc4cc(OC)c(OC)nc34)c(F)c2)c(=O)c(-c2ccc(F)cc2)c1` [Compound 135, N-[4-[(6,7-Dimethoxy-1,5-naphthyridin-4-yl)oxy]-3-fluorophenyl]-5-(4-fluorophenyl)-1-(methylamino)-4-oxopyridine-3-carboxamide], the pIC50 in test [1] (setting [7]), in test [2], in test [3] (setting [8]), in test [4] and in test [5] was more than 7.00 throughout.
As for `COc1cc2nccc(Oc3ccc(NC(=O)c4cn(N(C)C)cc(-c5ccc(F)cc5)c4=O)cc3F)c2nc1OC` [Compound 136, N-[4-[(6,7-Dimethoxy-1,5-naphthyridin-4-yl)oxy]-3-fluorophenyl]-1-(dimethylamino)-5-(4-fluorophenyl)-4-oxopyridine-3-carboxamide], the pIC50 in test [1] (setting [7]), in test [2], in test [3] (setting [8]), in test [4] and in test [5] was more than 7.00 each time.
With `COc1cnc2c(Oc3ccc(NC(=O)c4cnc(C)c(-c5ccc(F)cc5)c4O)cc3)ccnc2c1` [Compound 147, 5-(4-Fluorophenyl)-4-hydroxy-N-[4-[(7-methoxy-1,5-naphthyridin-4-yl)oxy]phenyl]-6-methylpyridine-3-carboxamide], the pIC50 in test [1] (setting [7]), in test [2], in test [3] (setting [8]), in test [4] and in test [5] was more than 7.00 throughout.
As to `COc1cc2nccc(Oc3ccc(NC(=O)c4cnc(C)n(-c5ccc(F)cc5)c4=O)cc3)c2nc1OC` [Compound 267, N-[4-[(6,7-Dimethoxy-1,5-naphthyridin-4-yl)oxy]phenyl]-1-(4-fluorophenyl)-2-methyl-6-oxopyrimidine-5-carboxamide], the pIC50 is less than 6.52 in test [6], more than 7.00 in test [2], less than 6.52 in test [3] (setting [8]) and less than 6.52 in test [5].
For `COc1cc2nccc(Oc3ccc(NC(=O)c4ccc(CO)n(-c5ccc(F)cc5)c4=O)cc3F)c2nc1OC` [Compound 357, N-[4-[(6,7-dimethoxy-1,5-naphthyridin-4-yl)oxy]-3-fluorophenyl]-1-(4-fluorophenyl)-6-(hydroxymethyl)-2-oxopyridine-3-carboxamide], the pIC50 in test [6], in test [2], in test [3] (setting [8]) and in test [4] was more than 7.00 in each case.
Regarding `COc1cc2nccc(Oc3ccc(NC(=O)c4c5n(cc(-c6ccc(F)cc6)c4=O)CCC5)cc3F)c2nc1OC` [Compound 404, N-[4-[(6,7-dimethoxy-1,5-naphthyridin-4-yl)oxy]-3-fluorophenyl]-6-(4-fluorophenyl)-7-oxo-2,3-dihydro-1H-indolizine-8-carboxamide], the pIC50 in test [1] (setting [7]), in test [2], in test [3] (setting [8]), in test [4] and in test [5] was more than 7.00 each time.
On to `COc1cnc2c(Oc3ccc(NC(=O)c4c5n(cc(-c6ccc(F)cc6)c4=O)CCC5)cc3F)ccnc2c1` [Compound 405, N-[3-fluoro-4-[(7-methoxy-1,5-naphthyridin-4-yl)oxy]phenyl]-6-(4-fluorophenyl)-7-oxo-2,3-dihydro-1H-indolizine-8-carboxamide], for which the negative-log IC50 (pIC50) in test [1] (setting [7]) is more than 7.00; in test [2], more than 7.00; in test [3] (setting [8]), more than 7.00; in test [4], more than 7.00; in test [5], less than 6.52.
On to `COc1nc2c(Oc3ccc(NC(=O)c4cn(C(C)C)cc(-c5ccc(F)cc5)c4=O)cc3F)ccnc2cc1-c1cccnc1` [Compound 605, N-[3-Fluoro-4-[(6-methoxy-7-pyridin-3-yl-1,5-naphthyridin-4-yl)oxy]phenyl]-5-(4-fluorophenyl)-4-oxo-1-propan-2-ylpyridine-3-carboxamide hydrochloride], for which the pIC50 is more than 7.00 in test [1] (protocol of Example D-2); more than 7.00 in test [2]; more than 7.00 in test [3] (protocol of Example C-2); more than 7.00 in test [4]; 6.52 to 7.00 in test [5].
With `COc1nc2c(Oc3ccc(NC(=O)c4cn(C(C)C)c(C)c(-c5ccc(F)cc5)c4=O)cc3F)ccnc2cc1-c1cccnc1` [Compound 606, N-[3-Fluoro-4-[(6-methoxy-7-pyridin-3-yl-1,5-naphthyridin-4-yl)oxy]phenyl]-5-(4-fluorophenyl)-6-methyl-4-oxo-1-propan-2-ylpyridine-3-carboxamide hydrochloride], the negative-log IC50 (pIC50) in test [1] (protocol of Example D-2) is more than 7.00; in test [2] it was more than 7.00; in test [3] (protocol of Example C-2), more than 7.00; in test [4] it was more than 7.00; in test [5], 6.52 to 7.00.
With `COc1nc2c(Oc3ccc(NC(=O)c4cnc(C)c(-c5ccc(F)cc5)c4O)cc3F)ccnc2cc1-c1cnn(C(F)F)c1` [Compound 607, N-[4-[[7-[1-(Difluoromethyl)pyrazol-4-yl]-6-methoxy-1,5-naphthyridin-4-yl]oxy]-3-fluorophenyl]-5-(4-fluorophenyl)-4-hydroxy-6-methylpyridine-3-carboxamide], the pIC50 in test [1] (protocol of Example D-2), in test [2], in test [4] and in test [5] was more than 7.00 in each case.
Regarding `COc1nc2c(Oc3ccc(NC(=O)c4cn(C(C)C)cc(-c5ccc(F)cc5)c4=O)cc3F)ccnc2cc1-c1cnn(C(F)F)c1` [Compound 608, N-[4-[[7-[1-(Difluoromethyl)pyrazol-4-yl]-6-methoxy-1,5-naphthyridin-4-yl]oxy]-3-fluorophenyl]-5-(4-fluorophenyl)-4-oxo-1-propan-2-ylpyridine-3-carboxamide], the pIC50 in test [1] (protocol of Example D-2), in test [2], in test [4] and in test [5] was more than 7.00 in each case.
`COc1nc2c(Oc3ccc(NC(=O)c4cn(C(C)C)c(C)c(-c5ccc(F)cc5)c4=O)cc3F)ccnc2cc1-c1cnn(C(F)F)c1` [Compound 609, N-[4-[[7-[1-(Difluoromethyl)pyrazol-4-yl]-6-methoxy-1,5-naphthyridin-4-yl]oxy]-3-fluorophenyl]-5-(4-fluorophenyl)-6-methyl-4-oxo-1-propan-2-ylpyridine-3-carboxamide]: the pIC50 in test [1] (protocol of Example D-2), in test [2], in test [3] (protocol of Example C-2), in test [4] and in test [5] was more than 7.00 throughout.
